The source of these data is US20230149432A1, “Human Milk Oligosaccharides for Improving Resistance of Organism Against Staphylococcus Aureus Infection” (Inner Mongolia Yili Industrial Group Co., Ltd., priority 2020, published 2023).

In assay [1] the test system is Staphylococcus aureus ATCC25923. The assay can be described thus: Nematode infection model and lifespan assay (survival of C. elegans infected by Staphylococcus aureus). The format is in vivo, Caenorhabditis elegans. The following applies: for dose-effect relationship of protection of nematode survival: doses up to 30 mg/mL. How it is done:
Human milk oligosaccharide solutions were prepared with distilled water and incubated in Petri dishes containing a nematode growth medium at different final concentrations (1, 10, and 30 mg/mL, respectively). To better determine the range of the ideal concentration, a preliminary screening on the dose-effect relationship of 2′-FL was first performed, and the 2′-FL concentrations used were 0.001, 0.01, 0.1, 1 and 10 mg/mL. For the HMO compositions, included were a test concentration of 8 mg/mL and a 15 mg/mL, respectively, after the addition into the nematode growth medium.
Age-consistent nematodes were obtained and cultured in Petri dishes containing nematode agar media (nematode media containing E. coli OP50 as food) with different doses of HMO (1, 8, 10, 15, 30 mg/mL) for co-culture. After the nematodes came into adulthood, they were transferred to petri dishes inoculated with Staphylococcus aureus ATCC25923 (supplemented at approximately 10^8 to 10^9CFU/mL) to simulate the condition of infection by Staphylococcus aureus. The intervening substances (HMO) added in the infection stage of each group were the same as those in the culture stage. Two controls were used, one without the pathogen (C. elegans dish containing E. coli OP50) and one with Staphylococcus aureus infection without any intervention (dish with Staphylococcus aureus only). In addition, a group in which an intervening substance was added in the culture phase and no intervention in the infection phase, and a group in which the intervention substance was not added in the cultivation phase but added in the infection phase were set up.
Several days into the culture of the nematodes, their survival rate was counted on a daily basis. […] Two independent assays were carried out for each condition (that is, unless otherwise specified, the experimental data in the examples were the results of two independent experiments).
Statistical comparative analysis of survival curves was performed, and log rank survival significance analysis was performed using the GraphPad Prism 4 or GraphPad Prism 9 statistical software package. One-way ANOVA was used to analyze for significant differences in survival rates among the groups on the third or fifth day of infection. For the comparison of the groups, an asterisk*represents the degree of the significant difference, with ****indicating P<0.0001, and ***indicating P<0.001. NS means not significant.

The test system is the same in assay [2]. Nature of the assay: Disc diffusion bacteriostatic zone experiment. The format is cell-based. As to conditions: positive control, 200 μg/mL; 37° C., 18 hours. The method, then:
In order to determine whether the tested materials themselves have an antibacterial effect, a bacteriostatic zone experiment for disk diffusion was carried out. Discs were prepared with sterile filter paper impregnated with the tested HMO materials (10 mg/mL, 30 mg/mL), and the discs were dried overnight under sterile conditions. Staphylococcus aureus ATCC25923 (1.0×10^6CFU/mL) was spread evenly on the surface of a NGM agar plate, and then the discs were placed on the surface of the inoculated agar plate petri dish. Gentamicin (200 μg/mL) was used as a positive control. All dishes were incubated at 37° C. for 18 hours.
In order to investigate whether the protective effects of individual HMOs or their compositions against Staphylococcus aureus infection, as presented in previous tests, were derived from direct bactericidal or bacteriostatic function, a test was carried out in which the test material was incubated with the bacteria population and observed whether an bacteriostatic zone of was formed. As shown in the figure, at two different concentration (left: 10 mg/mL, right: 30 mg/mL), none of the human milk oligosaccharides alone formed a transparent annular bacteriostatic zone around the inoculation site. […]

The mark [3] stands for this setting: 1 mg/mL, vs infected control without intervention.
Where [4] appears, read: 10 mg/mL, vs infected control without intervention.
Where [5] appears, read: 30 mg/mL, vs infected control without intervention.

`CC(=O)N[C@H]1[C@H]([C@H](O)[C@H](O)CO)O[C@@](OC[C@H]2O[C@@H](O[C@H]3[C@H](O)[C@@H](O)[C@H](O)O[C@@H]3CO)[C@H](O)[C@@H](O)[C@H]2O)(C(=O)O)C[C@@H]1O` [6′-SL, 6′-sialyllactose]: the “effect on nematode survival rate after Staphylococcus aureus infection” value (“effect on nematode survival rate” below) in assay [1] (setting [3]) was “not greatly improved”; in assay [1] (setting [4]), “significantly improved”; in assay [1] (setting [5]), “significantly improved”. The “dose-effect relationship of protection of nematode survival” value (from here on “dose-effect relationship”) in assay [1] is given as “has a dose-effect relationship”. For the same compound, in assay [1] (under protection of 6′-SL, 10 or 30 mg/mL, infected for 3 days), the “survival rate of nematodes” value is “up to 75%”.
Regarding `CC(=O)N[C@H]1[C@H]([C@H](O)[C@H](O)CO)O[C@@](O[C@H]2[C@@H](O)[C@@H](CO)O[C@@H](O[C@H]3[C@H](O)[C@@H](O)C(O)O[C@@H]3CO)[C@@H]2O)(C(=O)O)C[C@@H]1O` (stereo partly shown) [3′-SL, 3′-sialyllactose], the “effect on nematode survival rate” value in assay [1] (setting [3]), in assay [1] (setting [4]) and in assay [1] (setting [5]) was “no significant effect was observed” each time.
On to `CC(=O)N[C@H]1[C@H](O[C@H]2[C@@H](O)[C@@H](CO)O[C@@H](O[C@H]3[C@H](O)[C@@H](O)C(O)O[C@@H]3CO)[C@@H]2O)O[C@H](CO)[C@@H](O)[C@@H]1O[C@@H]1O[C@H](CO)[C@H](O)[C@H](O)[C@H]1O` (stereo partly shown) [LNT, Lacto-N-Tetraose], for which the “effect on nematode survival rate” value in assay [1] (setting [3]) is listed as “not greatly improved”; in assay [1] (setting [4]) it was “significantly improved”; in assay [1] (setting [5]), “significantly improved”. Moreover, the “dose-effect relationship” value in assay [1] is “has a dose-effect relationship”.
On to Gentamicin, for which, in assay [2], the “formation of a transparent annular bacteriostatic zone” value is given as “showed a bacteriostatic effect”.
Take 3-fucosyllactose [Composition 3-FL]: the “effect on nematode survival rate” value in assay [1] (setting [3]) was “no effect”; in assay [1] (setting [4]) it was “better protective function (P<0.0001)”; in assay [1] (setting [5]), “better protective function (P<0.0001)”. In addition, the “dose-effect relationship” value in assay [1] was “greater protection shown at higher doses”. In assay [1] (infection for 3 days, 3-FL 10 mg/mL vs 2′-FL 30 mg/mL), the “survival rate of nematodes compared with 2′-FL” value was “the same effect was achieved with 3-FL at 10 mg/mL as that with 2′-FL at 30 mg/mL”. The “protection of nematodes compared with 2′-FL at the same dose” value in assay [1] (same dose, infection for 3 days) is given as “more effective in protecting nematodes from Staphylococcus aureus infection than 2′-FL”.
Regarding 2′-fucosyllactose [2′-FL], the “effect on nematode survival rate” value in assay [1] (setting [4]) was “considerable increase in nematode survival rate which was significant (P<0.0001)”; in assay [1] (15 mg/mL, another batch of experiments), “significantly improves the survival rate of nematodes”; in assay [1] (setting [5]), “the protective effect was significantly increased, and the effect was significant (P<0.0001)”; in assay [1] (doses at 1 mg/mL or less, survival curve vs infected control without intervention), “did not show any effects”. Also, the “effect on lifespan of nematodes after Staphylococcus aureus infection” value in assay [1] (15 mg/mL) was “significantly prolongs the lifespan of nematodes”. Also, the “dose-effect relationship” value in assay [1] is “dose-dependent and optimal at 30 mg/mL”.
